Test results published in patent EP1507010B1, “Control of the gene expression in eukaryotic cells” (priority 1999, dated 2001).

Legend:
[1] = test system: HA-VP16-EsaR fusion (pMON53005); assay: Transient GUS reporter assay in transfected carrot protoplasts with VP16-EsaR effector; assay type: cell-based, Erwinia sterwartii; settings: reporter esaR box (4X)-GUS pMON53009; dose-dependent, concentration not given; 36 hours
[2] = target: T1, HA-VP16-TraR fusion (TraR from Agrobacterium strain A348 fused to VP16 activation domain; pMON53030) (UniProt P06492+P33905); assay: Transient GUS reporter assay in transfected carrot protoplasts with VP16-TraR effector; assay type: cell-based, Agrobacterium tumefaciens; design: + inducer (average of the GUS activities) / + inducer (GUS activity, average) / GUS activity, average (with AHL or analog at the stated concentration) / GUS activity, average (+ inducer) / GUS activity, average: unit not given here; settings: for GUS activity, average ('- inducer'): 1 µM of the AHL or analog; for GUS activity, average ('- inducer') / GUS activity, average (with AHL or analog at the stated concentration) / GUS activity, average (+ inducer) / GUS activity, average / fold +/-: reporter TraA8(4X)-GUS + 35S-VP16-TraR; for GUS activity, average (with AHL or analog at the stated concentration): 5 µM of the AHL or analog; for GUS activity, average: 25 µM of the AHL or analog
T1 construct: PCR fragments containing open reading frames are cloned into an expression construct; expressed in transfected cells; host or cells: carrot protoplasts from cell suspension culture, transient transfection
Excerpt: Carrot protoplasts were transfected with the TraA8 (4X)- GUS reporter construct with the 35S-VP16-TraR activator gene and tested for GUS induction by application of wild type AHL and the various AHL analogs described in Example 8. Table 8: Transient assays in carrot protoplasts of AHL analogs

[3] = ratio of GUS activity at 12.5 µM to that at 5 µM
[4] = ratio of GUS activity at 75 µM to that at 25 µM
[5] = ratio of GUS activity at […] to that at 1 µM

Row | SMILES | activation by the VP16-EsaR construct diminished by addition of the inducer [1] | Fold induction ([2]; 25 [i M] inducer (OOHL, or C6) vs no inducer, reporter pMON53031, pMON53030 60 µg, 36 hrs, 25 µM) [fold] | + inducer (average of the GUS activities) ([2]; 25 [i M] inducer (OOHL, or C6), reporter pMON53031, pMON53030 60 µg, 36 hrs) | GUS activity, average ('- inducer') [2] | GUS activity, average (with AHL or analog at the stated concentration) [2] | GUS activity, average (+ inducer) ([2]; 12.5 µM of the AHL or analog) | GUS activity, average [2] | GUS activity, average (+ inducer) ([2]; 75 µM of the AHL or analog) | fold +/- [2, 3] [fold] | fold +/- [2, 4] [fold] | fold +/- [2, 5] [fold] | GUS activity, average (+ inducer) ([2]; 78 µM as printed) | fold +/- ([2]; ratio of GUS activity at 78 µM to that at 25 µM) [fold]
1 | CCCC(=O)CC(=O)N[C@H]1CCOC1=O [C6, N-(3-oxohexanoyl)-L-homoserine lactone] | up to 3.3 fold | 1.6 | 568.5 | – | – | – | – | – | – | – | – | – | –
2 | CCCCCC(=O)C(C)C(=O)N[C@@H](CCO)C(=O)O (stereo partly drawn) [compound 7, N-(α-Methyl-b-ketooctanoyl)-(S)-homoserine] | – | – | – | 180.2 | 1071.5 | 2746.0 | 2486.3 | 3209.7 | 2.6 | 1.3 | 1.8 | – | –
3 | CCCCCC(=O)C(C)(C)C(=O)N[C@@H](CCO)C(=O)O [compound 16, N-(α,α-Dimethyl-b-ketooctanoyl)-(S)-homoserine] | – | – | – | 111.8 | 229.7 | 509.8 | 1426.6 | 4719.8 | 2.2 | 3.3 | 2.8 | – | –
4 | CCCCCC(=O)C(CC)C(=O)N[C@@H](CCO)C(=O)O (stereo partly drawn) [compound 19, N-(α-Ethyl-b-ketooctanoyl)-(S)-homoserine] | – | – | – | 469.6 | 2239.4 | 5377.3 | 6732.3 | – | 2.4 | – | 2.8 | 7569.1 | 1.1
5 | CCCCCC(=O)C(CCCC)C(=O)N[C@@H](CCO)C(=O)O (stereo partly drawn) [compound 25, N-(α-Butyl-b-ketooctanoyl)-(S)-homoserine] | – | – | – | 256.9 | 309.3 | 284.7 | 224.2 | 252.9 | 0.9 | 1.1 | 2.1 | – | –
6 | CCCCCCC(C(C)=O)C(=O)N[C@@H](CCO)C(=O)O (stereo partly drawn) [compound 26, N-(α-Hexyl-b-ketobutanoyl)-(S)-homoserine] | – | – | – | 184.7 | 387.6 | 1812.5 | 1515.3 | 2879.9 | 4.7 | 1.9 | 1.2 | – | –
